Test results taken from paper PMC8587515, “Cytotoxic and Anti-Inflammatory Activities of Dihydroisocoumarin and Xanthone Derivatives from Garcinia picrorhiza” (Molecules, 2021).

Assays:
[1] = test system: NO production in LPS-IFN-γ-induced RAW 264.7 macrophages; assay: NO production inhibition assay (Griess), RAW 264.7; type: cell-based, mouse; conditions: for IC50: Mus musculus, RAW264.7, LPS-IFN-γ-induced, 16 h, mean ± SEM (n = 6), read-out: IC50, iNOS (inhibition of NO production), RAW 264.7; for suppression of NO production, RAW 264.7: final concentration of 50 µM, preliminary screen
Experimental: (§1) Compounds 1–8 were screened for their inhibitory effects on nitric oxide production in LPS-IFN-γ activated RAW 264.7 macrophages and BV-2 microglial cells at a final concentration of 50 µM. […] A deprenylated furanoxanthone structure with ortho hydroxy group in ring B as in 7 might be important to enhance the inhibitory effect when compared to 6 and 8.
(§2) The iNOS inhibitory activity of the isolated compounds and respective cytotoxicity was determined using a previously described protocol. Briefly, BV-2 mouse microglial (25,000 cells/well) and RAW 264.7 mouse macrophage (100,000 cells/well) cell lines were seeded into 96-well plates in high glucose Dulbecco’s Modified Eagle’s Medium (DMEM, Gibco) containing 4 mM L-glutamine, 10% FBS, 2% HEPES, 1% penicillin/streptomycin, and 0.5% amphotericin B. After incubation for 24 h at 37 °C in a 5% CO2 humidified atmosphere, the cells were stimulated with 0.05% LPS (Sigma) and 0.025% interferon-γ (Roche Diagnostics, Mannheim, Germany) and treated with different concentrations (5–100 μM) of the tested compounds. The level of NO production in cell culture supernatants was determined using Griess reagent (Sigma) by photocolorimetric analysis after 16 h of incubation, using a Hidex Sense Microplate Reader (Hidex, Turku, Finland). Fifty microliters of XTT reagent (Sigma, Kit II) was then added into the same plates for cell viability measurement after 60 min incubation. L-NMMA (Alexis, Grünberg, Germany) 100 µM was used as the positive control, while 1% DMSO and digitonin (Roth, Karlsruhe, Germany) 400 µM were used as the vehicle and negative control, respectively. The assays were conducted in triplicates and repeated in two independent experiments. IC50 values were determined by graphical analysis using GraphPad Prism 7 (GraphPad Software, La Jolla, CA, USA).

[2] = target: T1, COX-2 (human recombinant PGHS-2) (Homo sapiens, UniProt P35354); assay: COX-2 enzyme inhibition assay (PGE2 ELISA); type: biochemical; conditions: mean ± SD (n = 4)
T1 construct: purchased Cayman Chemical Co., Ann Arbor, MI, USA
T1 sequence (P35354 18-604): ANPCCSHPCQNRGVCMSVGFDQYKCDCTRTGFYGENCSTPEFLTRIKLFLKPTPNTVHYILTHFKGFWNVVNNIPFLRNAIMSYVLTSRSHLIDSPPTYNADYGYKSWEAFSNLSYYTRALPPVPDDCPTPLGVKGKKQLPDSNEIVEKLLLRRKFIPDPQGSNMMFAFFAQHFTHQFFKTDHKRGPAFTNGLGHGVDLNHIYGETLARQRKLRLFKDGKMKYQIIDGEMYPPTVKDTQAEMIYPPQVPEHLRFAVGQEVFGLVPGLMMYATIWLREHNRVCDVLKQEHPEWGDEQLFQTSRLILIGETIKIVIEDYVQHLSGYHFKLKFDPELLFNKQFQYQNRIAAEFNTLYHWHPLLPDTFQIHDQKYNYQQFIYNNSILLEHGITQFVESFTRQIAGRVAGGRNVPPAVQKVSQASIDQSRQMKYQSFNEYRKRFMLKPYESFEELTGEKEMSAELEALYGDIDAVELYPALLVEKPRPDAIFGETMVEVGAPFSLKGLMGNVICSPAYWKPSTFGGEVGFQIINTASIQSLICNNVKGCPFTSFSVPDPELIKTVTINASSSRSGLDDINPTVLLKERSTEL
Experimental: (§3) The anti-inflammatory effects of the isolated compounds were also screened on COX-1 and COX-2 enzymes inhibition at a final concentration of 20 µM.
(§4) Purified PGHS-1 from ram seminal vesicles for COX-1 and human recombinant PGHS-2 for COX-2 (Cayman Chemical Co., Ann Arbor, MI, USA) were used for the COX inhibition assays. Experiments were performed in a 96-well plate format, as previously described. Briefly, the incubation mixture contained 180 µL of 0.1 M TRIS/HCl-buffer pH 8.0 (Roth, Karlsruhe, Germany), 50 µM Na2EDTA (only for COX-2, Titriplex III, Merck, Darmstadt, Germany), 18 mM L-epinepherine bitartrate (Fluka, Buchs, Switzerland), 5 µM porcine hematin (MP Biomedicals LLC, Solon, OH, USA), and COX-1 or COX-2 enzymes (0.2 U/well). Ten microliters of tested compounds (dissolved in DMSO with a final concentration of 20 µM) was added and the mixture was pre-incubated for 5 min at room temperature. Thereafter, 10 µL of 5 µM arachidonic acid (Ann Arbor, Michigan USA) was added to the mixture and incubated for 20 min at 37 °C. The reaction was subsequently stopped by adding 10 µL of 10% (v/v) formic acid. The concentration of PGE2 generated in the reaction was quantitatively measured by a competitive PGE2 ELISA kit (Enzo Life Sciences Inc., Farmingdale, NY, USA) according to the manufacturer’s protocol and previous procedure. The absorbance at 405 nm was measured using a Hidex Sense Microplate Reader (Hidex, Turku, Finland). […] The assays were performed in duplicates and repeated in two independent experiments.

[3] = target: T2, COX-1 (purified PGHS-1 from ram seminal vesicles) (Ovis aries, UniProt P05979); assay: COX-1 enzyme inhibition assay (PGE2 ELISA); type: biochemical; conditions: mean ± SD (n = 4)
T2 construct: Purified PGHS-1 from ram seminal vesicles for COX-1; purchased Cayman Chemical Co., Ann Arbor, MI, USA; host or cells: ram seminal vesicles (tissue-purified)
T2 sequence (P05979 25-600): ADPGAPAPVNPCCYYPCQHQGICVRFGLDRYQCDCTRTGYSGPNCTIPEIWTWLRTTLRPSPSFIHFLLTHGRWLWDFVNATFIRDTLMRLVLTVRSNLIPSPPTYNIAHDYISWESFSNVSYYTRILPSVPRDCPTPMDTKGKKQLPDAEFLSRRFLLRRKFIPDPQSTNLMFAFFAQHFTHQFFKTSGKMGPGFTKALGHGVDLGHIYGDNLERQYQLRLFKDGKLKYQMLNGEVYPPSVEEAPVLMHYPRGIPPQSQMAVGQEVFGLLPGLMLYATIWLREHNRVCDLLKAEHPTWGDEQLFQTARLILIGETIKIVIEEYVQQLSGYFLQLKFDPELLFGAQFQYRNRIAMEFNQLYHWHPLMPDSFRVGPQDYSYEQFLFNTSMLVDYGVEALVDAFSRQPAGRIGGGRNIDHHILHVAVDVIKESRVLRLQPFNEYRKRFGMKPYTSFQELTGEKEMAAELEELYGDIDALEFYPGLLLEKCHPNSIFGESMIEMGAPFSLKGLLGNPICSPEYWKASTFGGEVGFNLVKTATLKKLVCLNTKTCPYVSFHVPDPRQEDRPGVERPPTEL
Experimental: as §3, §4

[4] = Cytotoxicity (XTT cell viability), RAW 264.7; type: cell-based; conditions: mouse, RAW 264.7 macrophage cells, LPS/IFN-γ-stimulated, LPS-IFN-γ-induced cells, mean ± SEM (n = 6)
Experimental: as §1, §2

Compound	IC50 [1] [µM]	suppression of NO production, RAW 264.7 [1]	inhibition at 20 µM [2] [%]	inhibition at 20 µM [3] [%]	IC50 at 16 h [4] [µM]
C[C@H]1Oc2c(c(O)c3c(=O)c4ccc(O)c(O)c4oc3c2CCC(C)(C)O)C1(C)C [Compound 4, gerontoxanthone C hydrate]	84.3 ± 3.5	over 70%	< 10	32.4 ± 7.9	> 200
C[C@@H]1Oc2cc(O)c3c(=O)c4ccc(O)c(O)c4oc3c2C1(C)C [Compound 7, 2-deprenylrheediaxanthone B]	45.6 ± 6.5	over 70%	< 10	15.4 ± 7.5	85.6 ± 6.9
